Assay [1] addresses T1, IRAK3-ePL (Homo sapiens, UniProt Q9Y616).
T1 construct: expressed in transfected cells; host or cells: 293T CRBN OE/GSPT1 G575N KI cells, lentiviral transduction, puromycin selected
The assay can be described thus: IRAK3-ePL overexpressing degradation assay (InCELL Hunter luminescence, dose response). It counts as cell-based. The settings on record: for IRAK3 ePL degradation Ymin: lowest percentage of target protein remaining following compound treatment; for DC50: read-out: IRAK3 ePL degradation EC50. The protocol:
Example B1. IRAK3-ePL Overexpressing Degradation Assay
Stable cell lines were generated by the following protocol. 3×10^5 Lenti-X 293T cells (Clonetech) were plated in 0.8 mL of media in a 12-well plate and incubated overnight at 37° C./5% CO2. Packaging plasmid (0.4 μg, pMD), envelope plasmid (0.4 μg, pSP), and lentiviral transfer IRAK3-ePL plasmid (0.8 μg, TRAK3 sequence NM_007199.3) were mixed in 0.1 mL of Opti-MEM and incubated for 5 min. Simultaneously, 2.4 μL of Lipofectamine 2000 (Invitrogen) was added to 0.1 mL of Opti-MEM (Gibco) and incubated for 5 min. The plasmid DNA and lipofectamine were combined and the mixture was allowed to incubate for 20 min.DNA:Lipofectamine Opti-MEM mixtures were then added to previously plated cells dropwise and the cells were incubated for ~16 h at 37° C./5% CO2. Following incubation, the media was removed and 1.2 mL of fresh media was added per well. Lenti-X 293T cells were incubated for ~30 h at 37° C./5% CO2. […] Following incubation, media was removed from the Lenti-X 293T wells and passed through a […] filter. Part of the viral supernatant was used to transduce cells and the rest was stored at −80° C. Viruses were then added individually (0.5 mL virus) to each well of the 293T^CRBN OE/GSPT1 G575N KI cells, followed by addition of polybrene (10 mg/mL Millipore) to each well at a final concentration of 5.0 μg/mL. Cells were incubated for ~24 h at 37° C./5% CO2. After aspirating media off plates, cells were washed with DPBS, trypsinized and plated in a 10 cm dish in 15 mL of media and […] puromycin. Following incubation of cells for ~72 h at 37° C./5% CO2, media was aspirated off plates, and cells were washed with DPBS and trypsinized. The cells were plated in a 15 cm dish in 40 mL of media with 1.0 μg/mL Puromycin (Gibco) and incubated for ~72 h at 37° C./5% CO2. Following incubation, media was removed and cells were washed with DPBS and trypsinized. The majority of cells were resuspended in Invitrogen freezing media and stored away (~6-8×10^6 cells/vial).
IRAK3-ePL cellular dose response curve degradation assays were performed by the following protocol. Compounds to be tested were dispensed into a white 384-well tissue-culture treated plate using an acoustic liquid handler. Dilutions were prepared based on a 25 μL assay volume in duplicate 10 point 3-fold serial dilutions starting with a 10 μM dose. Negative control wells were included, which only contain 0.2% DMSO to calculate 100% signal. Positive control wells containing 30 μM Ataluren (luciferase inhibitor) were included to calculate the background signal level. All wells were backfilled to a final DMSO concentration of 0.2% to ensure DMSO uniformity across wells. IRAK3-ePL expressing cells (IRAK3-ePL Lenti-X 293T^CRBN/GSPT1 G575N) were washed, trypsinized, counted, and resuspended in fresh DMEM (Gibco) to give a cell concentration of 200,000 cells/mL. 25 μL of cells (5,000 cells/well) were dispensed into the wells of the 384-well plate prespotted with compounds in the previous step and incubated overnight at 37° C./5% CO2. Following incubation, the 384-well plate was taken out of the incubator and left at room temperature for 30 min. InCELL hunter reagent was prepared according to manufacturer's instructions (EA reagent, lysis buffer, and substrate reagent in a 1:1:4 ratio, Cat #96-0002, DiscoverX), which was added to the 384-well plate 25 μL per well. Following the incubation of the plate for 1 h at room temperature, the luminescence signal was read using a ViewLux plate reader. Data was processed and analyzed in ActivityBase software. In short, the average luminescence values of the positive control wells were subtracted from the rest of the wells for background correction, and all luminescence values were normalized to the DMSO control wells. The average value of the DMSO control wells was set to equal 100% of the relative IRAK3-ePL protein levels. […]

Assay [2] addresses T2, IRAK3 (Homo sapiens, UniProt Q9Y616).
T2 construct: IRAK Endogenous HTRF Degradation Assay; endogenous in cells
T2 sequence (Q9Y616 1-596): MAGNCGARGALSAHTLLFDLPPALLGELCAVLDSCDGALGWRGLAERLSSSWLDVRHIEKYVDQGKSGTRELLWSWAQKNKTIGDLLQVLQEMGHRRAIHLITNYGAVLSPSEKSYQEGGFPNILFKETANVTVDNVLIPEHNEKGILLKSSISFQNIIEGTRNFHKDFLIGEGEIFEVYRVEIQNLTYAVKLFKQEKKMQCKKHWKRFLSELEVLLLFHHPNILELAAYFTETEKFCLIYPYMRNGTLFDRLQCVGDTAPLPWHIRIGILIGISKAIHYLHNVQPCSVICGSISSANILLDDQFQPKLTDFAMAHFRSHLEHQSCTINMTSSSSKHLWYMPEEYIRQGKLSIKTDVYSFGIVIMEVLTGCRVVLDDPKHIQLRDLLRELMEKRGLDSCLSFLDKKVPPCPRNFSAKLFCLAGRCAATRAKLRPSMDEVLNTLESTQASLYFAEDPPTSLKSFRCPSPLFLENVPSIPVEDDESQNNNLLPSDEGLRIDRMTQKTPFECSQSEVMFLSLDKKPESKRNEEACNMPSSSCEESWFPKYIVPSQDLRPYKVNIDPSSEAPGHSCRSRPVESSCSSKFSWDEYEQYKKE
The assay can be described thus: IRAK3 biochemical binding assay (LanthaScreen Eu Kinase Binding, TR-FRET). On the procedure:
Example B3. IRAK3 Biochemical Binding Assay
The LanthaScreen® Eu Kinase Binding assay was performed as described by the vendor (ThermoFisher Scientific Waltham, MA). Briefly, 100× solutions of compound were prepared in DMSO via serial dilution of the 10 mM stock solution in a 384-well reagent plate using 3-fold intervals to achieve final concentrations. 1 μL of the compound dilution series were added to the corresponding wells of a 384-well reagent plate containing 32.3 μL of 1× buffer (50 mM HEPES pH 7.4, […], 1 mM EGTA, 0.01% Brij-35). 5 μL of the buffer diluted compounds were transferred to the corresponding wells of a 384-well assay plate. 5 μL of 3× tracer was transferred to each well of the assay plate for a final tracer concentration of 10 nM. Finally, 5 μL of the 3×Eu-Anti-GST and IRAK3 mix was transferred to each well for a final concentration of 2 nM and 10 nM respectively. Reactions were allowed to incubate for 1 hour at room temperature. TR-FRET signal of the interaction (λex340/λem 665/λem 615) was read at room temperature with a delay time of 100 ρs and an integration time of 200 ρs using an Envision plate reader. Background corrected emission signal ratios at each compound concentration were used to calculate percentage of inhibition (% Inhibition). Plots of % Inhibition versus inhibitor concentrations were fit according to a dose-response equation (Eq. 1) to generate IC50 and Hill slope values using Dotmatics software (Dotmatics, Bishops Stortford, Hertfordshire, England).
Using these assays, IC50, Dmax, EC50, and DC50 values of the following compounds were determined. Dmax is defined as the maximum percent degradation achieved and DC50 is the concentration at which 50% degradation is achieved.
In general terms: In TR-FRET formats the signal depends on donor and acceptor labels being close together.

For orientation: IC50 means the concentration that gives 50% inhibition. Read a high IC50 as a need for much substance. For the compound `Cc1cc(-c2cnc(Nc3cnn([C@H]4CCN(CCN5CCN(c6ccc(C7CCC(=O)NC7=O)cc6)C[C@@H]5C)[C@@H](C)C4)c3)c3nccn23)c(F)cc1F` (stereo partly drawn) [Compound 34, 3-(4-((S)-4-(2-((2S,4S)-4-(4-((5-(2,4-difluoro-5-methylphenyl)imdazo [1,2-a]pyrazin-8-yl)amino)-1H-pyrazol-1-yl)-2-methylpiperidin-1-yl)ethyl)-3-methylpiperazin-1-yl)phenyl) piperidine-2,6-dione], in assay [1], the “IRAK3 ePL degradation Ymin” value amounted to 23% and the DC50 was found to be 1.7 nM. Besides, the IC50 in assay [2] was found to be 1.5 nM.
For `C[C@@H]1CN(c2ccc(C3CCC(=O)NC3=O)cc2)CCN1CCN1CCC(n2cc(Nc3ncc(C4CC4)n4ccnc34)cn2)CC1` (stereo partly drawn) [Compound 32, 3-(4-((R)-4-(2-(4-(4-((5-cyclopropylimidazo[1,2-a]pyrazin-8-yl)amino)-1H-pyrazol-1-yl)piperidin-1-yl)ethyl)-3-methylpiperazin-1-yl)phenyl) piperidine-2,6-dione] the same measures were 23%, 1.4 nM and 36 nM.
On to `Cc1cccc(-c2cnc(Nc3cnn(C4CCN(CCN5CCN(c6ccc(C7CCC(=O)NC7=O)cc6)CC5)CC4)c3)c3nccn23)c1` (stereo not shown) [Compound 5, 3-(4-(4-(2-(4-(4-((5-(m-tolyl)imidazo[1,2-a]pyrazin-8-yl)amino)-1H-pyrazol-1-yl)piperidin-1-yl)ethyl)piperazin-1-yl)phenyl) piperidine-2,6-dione], for which, in assay [1], the “IRAK3 ePL degradation Ymin” value was 14% and the DC50 is 1 nM. Besides, the IC50 in assay [2] was found to be 5.9 nM.
The corresponding values for `Cc1ccccc1-c1cnc(Nc2cnn(C3CCN(CCN4CCN(c5ccc(C6CCC(=O)NC6=O)cc5)CC4)CC3)c2)c2nccn12` (stereo not shown) [Compound 79, 3-(4-(4-(2-(4-(4-((5-(o-tolyl)imidazo[1,2-a]pyrazin-8-yl)amino)-1H-pyrazol-1-yl)piperidin-1-yl)ethyl)piperazin-1-yl)phenyl) piperidine-2,6-dione] are 29%, 29 nM and 260 nM.
Turning to `O=C1CCC(c2ccc(N3CCN(CC[C@H]4CC[C@H](n5cc(Nc6ncc(C78CCCC7C8)n7ccnc67)cn5)CC4)CC3)cc2)C(=O)N1` (stereo partly shown) [Compound 100], the IC50 in assay [2] worked out at 4 nM.
On to `O=C1CCC(c2ccc(N3CCN(CCN4CCC(n5cc(Nc6ncc(-c7ccc8c(c7)NC(=O)CO8)n7ccnc67)cn5)CC4)CC3)cc2)C(=O)N1` (stereo not shown) [Compound 15, 3-(4-(4-(2-(4-(4-((5-(3-oxo-3,4-dihydro-2H-benzo[b][1,4]oxazin-6-yl)imidazo[1,2-a]pyrazin-8-yl)amino)-1H-pyrazol-1-yl)piperidin-1-yl)ethyl)piperazin-1-yl)phenyl) piperidine-2,6-dione], for which, in assay [1], the “IRAK3 ePL degradation Ymin” value stood at 15% and the DC50 stood at 0.51 nM. The half-maximal inhibitory concentration (IC50) in assay [2] was 6.4 nM.
On to `CN1CCOc2cc(F)c(-c3cnc(Nc4cnn(C5CCN(CCN6CCN(c7ccc(C8CCC(=O)NC8=O)cc7)CC6)CC5)c4)c4nccn34)cc21` (stereo not shown) [Compound 98, 3-(4-(4-(2-(4-(4-((5-(7-fluoro-4-methyl-3,4-dihydro-2H-benzo[b][1,4]oxazin-6-yl)imidazo[1,2-a]pyrazin-8-yl)amino)-1H-pyrazol-1-yl)piperidin-1-yl)ethyl)piperazin-1-yl)phenyl) piperidine-2,6-dione], for which the half-maximal inhibitory concentration (IC50) in assay [2] turned out to be 0.08 nM.
On the same count and under the same terms, in the case of `Cc1cc(-c2cnc(Nc3cnn(C4CCN(CCN5CCN(c6ccc(-n7ccc(=O)[nH]c7=O)cc6)CC5)CC4)c3)c3nccn23)c(F)cc1F` [Compound 102, 1-(4-(4-(2-(4-(4-((5-(2,4-difluoro-5-methylphenyl)imdazo [1,2-a]pyrazin-8-yl)amino)-1H-pyrazol-1-yl)piperidin-1-yl)ethyl)piperazin-1-yl)phenyl)pyrimidine-2,4(1H,3H)-dione] it was 0.8 nM.
As to `Cc1cccc(-c2cnc(Nc3cnn(C4CCN(CC(=O)N5CCN(c6ccc(C7CCC(=O)NC7=O)cc6)CC5)CC4)c3)c3nccn23)c1` (stereo not shown) [Compound 20, 3-(4-(4-(2-(4-(4-((5-(m-tolyl)imidazo[1,2-a]pyrazin-8-yl)amino)-1H-pyrazol-1-yl)piperidin-1-yl)acetyl)piperazin-1-yl)phenyl)piperidine-2,6-dione], in assay [1], the “IRAK3 ePL degradation Ymin” value is listed as 16% and the DC50 stood at 0.77 nM. Besides, in assay [2], the half-inhibitory concentration (IC50) turned out to be 2.9 nM.
The corresponding values for `Cc1ccc(-c2cnc(Nc3cnn(C4CCN(CCN5CCN(c6ccc(C7CCC(=O)NC7=O)cc6)CC5)CC4)c3)c3nccn23)cc1` (stereo not shown) [Compound 78, 3-(4-(4-(2-(4-(4-((5-(p-tolyl)imidazo[1,2-a]pyrazin-8-yl)amino)-1H-pyrazol-1-yl)piperidin-1-yl)ethyl)piperazin-1-yl)phenyl) piperidine-2,6-dione] are 29%, 5.5 nM and 27 nM.
`O=C1CCC(c2ccc(N3CCN(CC[C@H]4CC[C@H](n5cc(Nc6ncc(-c7cn[nH]c7)n7ccnc67)cn5)CC4)CC3)cc2)C(=O)N1` (stereo partly drawn) [Compound 120, 3-(4-(4-(2-((trans)-4-(4-((5-(1H-pyrazol-4-yl)imidazo[1,2-a]pyrazin-8-yl)amino)-1H-pyrazol-1-yl)cyclohexyl)ethyl)piperazin-1-yl)phenyl) piperidine-2,6-dione] gave a concentration for half-maximal inhibition (IC50) in assay [2] of 1.5 nM.

The values are drawn from patent US20260216347A1, “Substituted Imidazo-Based Compounds as Ligand Directed Degraders of IRAK3” (Celgene Corporation, priority 2022, published 2026).
